Laboratory results reported in ChEMBL document CHEMBL1287670, “Discovery and synthesis of 6,7,8,9-tetrahydro-5H-pyrimido-[4,5-d]azepines as novel TRPV1 antagonists” (Bioorg Med Chem Lett, 2010).
≈ marks a conversion by molar mass, not a printed value. Blank lines part the entries; values can stand above or below the compound they belong to. Calls of active or inactive are those of the source. No cut-off for these calls is given here.

Tests used:
[1] = target: T1, Transient receptor potential cation channel subfamily V member 1 (Homo sapiens, UniProt Q8NER1); experiment: Antagonist activity at human recombinant TRPV1 assessed as inhibition of capsaicin-induced in intracellular calcium levels by cell-based FLIPR assay; format: functional
T1 sequence (Q8NER1 whole entry): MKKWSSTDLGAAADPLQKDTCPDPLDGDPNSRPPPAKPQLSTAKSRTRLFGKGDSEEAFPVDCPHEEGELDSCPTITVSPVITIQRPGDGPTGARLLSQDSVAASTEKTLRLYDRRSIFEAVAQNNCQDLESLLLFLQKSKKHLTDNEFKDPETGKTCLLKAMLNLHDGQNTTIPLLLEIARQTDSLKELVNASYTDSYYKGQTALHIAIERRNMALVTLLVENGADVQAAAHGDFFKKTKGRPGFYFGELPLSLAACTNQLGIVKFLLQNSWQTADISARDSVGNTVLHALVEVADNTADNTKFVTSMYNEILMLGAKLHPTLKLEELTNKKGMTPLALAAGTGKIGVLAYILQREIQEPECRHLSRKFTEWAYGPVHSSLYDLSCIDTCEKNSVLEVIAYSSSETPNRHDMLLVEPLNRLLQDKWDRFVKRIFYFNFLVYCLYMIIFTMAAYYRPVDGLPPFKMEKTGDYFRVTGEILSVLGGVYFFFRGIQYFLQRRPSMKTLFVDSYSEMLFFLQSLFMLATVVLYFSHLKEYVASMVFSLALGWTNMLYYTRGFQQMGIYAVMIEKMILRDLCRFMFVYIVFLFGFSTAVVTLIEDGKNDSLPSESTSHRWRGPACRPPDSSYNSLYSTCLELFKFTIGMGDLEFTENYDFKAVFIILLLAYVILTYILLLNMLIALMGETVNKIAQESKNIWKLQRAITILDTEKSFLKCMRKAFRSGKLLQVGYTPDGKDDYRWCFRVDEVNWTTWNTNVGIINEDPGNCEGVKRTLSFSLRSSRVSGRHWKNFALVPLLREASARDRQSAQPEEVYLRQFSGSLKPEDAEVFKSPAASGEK

[2] = Cmax in fasted Sprague-Dawley rat at 1 mg/kg, iv or 5 mg/kg, po; format: ADME, organism-based; conditions: in vivo
[3] = Clearance in fasted Sprague-Dawley rat at 1 mg/kg, iv or 5 mg/kg, po; format: ADME, organism-based; conditions: in vivo
[4] = Bioavailability in fasted Sprague-Dawley rat at 1 mg/kg, iv or 5 mg/kg, po; format: ADME, organism-based; conditions: in vivo
[5] = Aqueous equilibrium solubility of the compound at pH 2 by HPLC; format: physicochemical; conditions: aqueous medium
[6] = tested on: Rattus norvegicus; experiment: Antihyperalgesic activity against carrageenan-induced thermal hyperalgesia in rat assessed as paw withdrawal latency at 30 mg/kg, po administered 1 hr before carrageenan challenge; format: functional, organism-based; design: dose 30 mg/kg
[7] = Volume of distribution at steady state in fasted Sprague-Dawley rat at 1 mg/kg, iv or 5 mg/kg, po; format: ADME, organism-based; conditions: in vivo, read-out: Vdss
[8] = Half life in fasted Sprague-Dawley rat at 1 mg/kg, iv or 5 mg/kg, po; format: ADME, organism-based; conditions: in vivo
[9] = AUC (infinity) in fasted Sprague-Dawley rat at 1 mg/kg, iv; format: ADME, organism-based; design: time infinity, dose 1 mg/kg, route intravenous; conditions: plasma
[10] = Aqueous equilibrium solubility of the compound in fasted-state simulated intestinal fluid at pH 6.8 by HPLC; format: physicochemical
[11] = AUC (infinity) in fasted Sprague-Dawley rat at 5 mg/kg, po; format: ADME, organism-based; design: time infinity, dose 5 mg/kg, route oral; conditions: plasma
[12] = target: T1, Transient receptor potential cation channel subfamily V member 1; experiment: Binding affinity to human recombinant TRPV1
[13] = target: Transient receptor potential cation channel subfamily V member 1 (Rattus norvegicus, UniProt O35433); experiment: Binding affinity to rat TRPV1
Sequence of Transient receptor potential cation channel subfamily V member 1 (Rattus norvegicus, UniProt O35433) (O35433 whole entry): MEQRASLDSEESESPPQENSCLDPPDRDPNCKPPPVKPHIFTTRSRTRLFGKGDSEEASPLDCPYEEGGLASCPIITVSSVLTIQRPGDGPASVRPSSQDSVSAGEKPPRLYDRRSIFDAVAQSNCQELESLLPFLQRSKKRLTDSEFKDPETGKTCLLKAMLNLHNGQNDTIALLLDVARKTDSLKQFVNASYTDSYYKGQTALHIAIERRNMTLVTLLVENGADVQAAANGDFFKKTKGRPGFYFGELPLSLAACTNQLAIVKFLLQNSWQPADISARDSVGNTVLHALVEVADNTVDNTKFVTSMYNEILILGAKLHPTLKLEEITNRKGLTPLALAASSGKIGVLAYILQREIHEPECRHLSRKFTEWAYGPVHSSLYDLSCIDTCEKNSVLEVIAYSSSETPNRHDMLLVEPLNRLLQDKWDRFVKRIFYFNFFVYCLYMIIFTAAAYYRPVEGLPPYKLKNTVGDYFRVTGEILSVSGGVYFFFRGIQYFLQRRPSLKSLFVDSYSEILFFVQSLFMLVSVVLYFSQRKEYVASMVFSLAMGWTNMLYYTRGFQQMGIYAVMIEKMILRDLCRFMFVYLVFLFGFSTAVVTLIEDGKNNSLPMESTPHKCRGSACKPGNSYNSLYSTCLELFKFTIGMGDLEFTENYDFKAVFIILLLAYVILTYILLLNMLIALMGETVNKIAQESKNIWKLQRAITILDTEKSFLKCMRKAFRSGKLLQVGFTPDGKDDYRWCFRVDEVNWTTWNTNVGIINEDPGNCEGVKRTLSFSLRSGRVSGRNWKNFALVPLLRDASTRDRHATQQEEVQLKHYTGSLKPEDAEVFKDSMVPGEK

Compound: CC(C)(C)c1cccc(Nc2ncnc3c2CCN(c2ncccc2C(F)(F)F)C3)c1
IC50 [1]: 520 nM

Compound: FC(F)(F)c1cccc(Nc2ncnc3c2CCN(c2ncccc2C(F)(F)F)C3)c1
IC50 [1]: 1450 nM

Compound: COc1nc(Nc2nc(C(C)C)nc3c2CCN(c2ncccc2C(F)(F)F)CC3)ccc1C(F)(F)F
IC50 [1]: 2460 nM

Compound: COC(=O)c1cnc(N2CCc3nc(N4CCOCC4)nc(Nc4ccc(C(F)(F)F)cc4)c3CC2)c(Cl)c1
IC50 [1]: 176 nM

Compound: FC(F)(F)c1ccc(Nc2nc(N3CCOCC3)nc3c2CCN(c2ncccc2C(F)(F)F)CC3)cc1
Cmax [2]: 160 nM
clearance [3]: 51.7 mL/min/kg
bioavailability [4]: 14%
solubility thermodynamic [5]: 5 µg/mL (≈ 9.29 µM)
Activity [6]: Active
Vd [7]: 4.7 L/kg
half-life [8]: 1.1 h
AUC(0-inf) [9]: 322 ng·h/mL
solubility thermodynamic [10]: 0.5 µg/mL (≈ 0.929 µM)
AUC(0-inf) [11]: 236 ng·h/mL

Compound: O=C(O)c1cnc(N2CCc3nc(N4CCCCC4)nc(Nc4ccc(C(F)(F)F)cc4)c3CC2)c(Cl)c1
solubility thermodynamic [10]: 218 µg/mL (≈ 399 µM)
IC50 [1]: 462 nM

Compound: C=C(C)C12C[C@@H](C)[C@@]34O[C@](Cc5ccccc5)(O[C@@H]1[C@@H]3C=C(COC(=O)Cc1ccc(O)c(OC)c1)C[C@]1(O)C(=O)C(C)=C[C@@H]41)O2 (single isomer, unassigned) [RESINIFERATOXIN]
Ki [12]: 14 nM
IC50 [13]: 180 nM

Compound: CC(C)(C)c1ccccc1Nc1ncnc2c1CCN(c1ncccc1C(F)(F)F)C2
IC50 [1]: > 20000 nM

Continued, values first:

IC50 [1]: 80 nM
Compound: Cc1nc2c(c(Nc3ccc(C(C)(C)C)cc3)n1)CCN(c1ncccc1C(F)(F)F)C2

IC50 [1]: 9 nM
Compound: CC(C)(C)c1ccc(Nc2ncnc3c2CCN(c2ncccc2C(F)(F)F)C3)cc1

IC50 [1]: > 10000 nM
Compound: CC(C)(C)c1ccc(Nc2ncnc3c2CN(c2ncccc2C(F)(F)F)CC3)cc1

IC50 [1]: 18 nM
Compound: CC(C)c1nc2c(c(Nc3ccc(C(C)(C)C)cc3)n1)CCN(c1ncccc1C(F)(F)F)C2

IC50 [1]: 2040 nM
Compound: CC(C)(C)c1ccc(Nc2ncnc3c2CCCN(c2ncccc2C(F)(F)F)C3)cc1
